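A five-concentration, 48-hour dose response in 96-well plates underlies each endpoint, interpolated linearly between surrounding concentrations. The concentration for 50% growth inhibition is given as GI50. The concentration for full growth arrest is given as TGI.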
Tests used:
Assay in all cases: NCI tumour cell line growth inhibition, 48 h
HT29 colon = tested on: HT29 colon
SW-620 colon = tested on: SW-620 colon
LOX IMVI melanoma = tested on: LOX IMVI melanoma
HCC-2998 colon = tested on: HCC-2998 colon
OVCAR-5 ovarian = tested on: OVCAR-5 ovarian
OVCAR-8 ovarian = tested on: OVCAR-8 ovarian
T-47D breast = tested on: T-47D breast
DU-145 prostate = tested on: DU-145 prostate
M14 melanoma = tested on: M14 melanoma
HOP-62 NSCLC = tested on: HOP-62 NSCLC
SK-OV-3 ovarian = tested on: SK-OV-3 ovarian
NCI-H226 lung = tested on: NCI-H226 lung
SNB-19 CNS = tested on: SNB-19 CNS
HL-60(TB) leukemia = tested on: HL-60(TB) leukemia
SNB-75 CNS = tested on: SNB-75 CNS
U251 CNS = tested on: U251 CNS
MALME-3M melanoma = tested on: MALME-3M melanoma
SF-268 CNS = tested on: SF-268 CNS
MDA-MB-231 breast = tested on: MDA-MB-231 breast
UACC-62 melanoma = tested on: UACC-62 melanoma
786-0 renal = tested on: 786-0 renal
HCT-15 colon = tested on: HCT-15 colon
KM12 colon = tested on: KM12 colon
NCI-H522 lung = tested on: NCI-H522 lung
NCI/ADR-RES ovarian = tested on: NCI/ADR-RES ovarian
UO-31 renal = tested on: UO-31 renal
SF-539 CNS = tested on: SF-539 CNS
OVCAR-4 ovarian = tested on: OVCAR-4 ovarian
NCI-H460 lung = tested on: NCI-H460 lung
OVCAR-3 ovarian = tested on: OVCAR-3 ovarian
MCF7 breast = tested on: MCF7 breast
K-562 leukemia = tested on: K-562 leukemia
HOP-92 NSCLC = tested on: HOP-92 NSCLC
PC-3 prostate = tested on: PC-3 prostate
SR leukemia = tested on: SR leukemia
UACC-257 melanoma = tested on: UACC-257 melanoma
SN12C renal = tested on: SN12C renal
MDA-MB-435 = tested on: MDA-MB-435
HS 578T breast = tested on: HS 578T breast
CCRF-CEM leukemia = tested on: CCRF-CEM leukemia
SF-295 CNS = tested on: SF-295 CNS
NCI-H23 lung = tested on: NCI-H23 lung
TK-10 renal = tested on: TK-10 renal
BT-549 breast = tested on: BT-549 breast
HCT-116 colon = tested on: HCT-116 colon
SK-MEL-5 melanoma = tested on: SK-MEL-5 melanoma
RPMI-8226 leukemia = tested on: RPMI-8226 leukemia
A498 renal = tested on: A498 renal
SK-MEL-2 melanoma = tested on: SK-MEL-2 melanoma
IGROV1 ovarian = tested on: IGROV1 ovarian
COLO 205 colon = tested on: COLO 205 colon
SK-MEL-28 melanoma = tested on: SK-MEL-28 melanoma
MOLT-4 leukemia = tested on: MOLT-4 leukemia
RXF 393 renal = tested on: RXF 393 renal
EKVX NSCLC = tested on: EKVX NSCLC
CAKI-1 renal = tested on: CAKI-1 renal
A549 NSCLC = tested on: A549 NSCLC
ACHN renal = tested on: ACHN renal

O[N+]1=CC=CCC1=S.On1ccccc1=S.[Zn]
GI50 (HT29 colon): 0.3 µM
TGI (HT29 colon): 0.942 µM
GI50 (SW-620 colon): 0.899 µM
TGI (SW-620 colon): 2.64 µM
GI50 (LOX IMVI melanoma): 0.429 µM
TGI (LOX IMVI melanoma): 0.912 µM
GI50 (HCC-2998 colon): 0.896 µM
TGI (HCC-2998 colon): 2.37 µM
GI50 (OVCAR-5 ovarian): 1.45 µM
TGI (OVCAR-5 ovarian): 3.04 µM
GI50 (OVCAR-8 ovarian): 0.399 µM
TGI (OVCAR-8 ovarian): 1.83 µM
GI50 (T-47D breast): 1.43 µM
TGI (T-47D breast): 3.13 µM
GI50 (DU-145 prostate): 0.732 µM
TGI (DU-145 prostate): 1.86 µM
GI50 (M14 melanoma): 0.46 µM
TGI (M14 melanoma): 1.31 µM
GI50 (HOP-62 NSCLC): 1.21 µM
TGI (HOP-62 NSCLC): 2.72 µM
GI50 (SK-OV-3 ovarian): 1.51 µM
TGI (SK-OV-3 ovarian): 2.87 µM
GI50 (NCI-H226 lung): 1.02 µM
TGI (NCI-H226 lung): 3.04 µM
GI50 (SNB-19 CNS): 1.24 µM
TGI (SNB-19 CNS): 2.8 µM
GI50 (HL-60(TB) leukemia): 2.58 µM
TGI (HL-60(TB) leukemia): 6.5 µM
GI50 (SNB-75 CNS): 1.95 µM
TGI (SNB-75 CNS): 6.85 µM
GI50 (U251 CNS): 0.602 µM
TGI (U251 CNS): 1.52 µM
GI50 (MALME-3M melanoma): 0.819 µM
TGI (MALME-3M melanoma): 2.71 µM
GI50 (SF-268 CNS): 0.88 µM
TGI (SF-268 CNS): 2.51 µM
GI50 (MDA-MB-231 breast): 0.759 µM
TGI (MDA-MB-231 breast): 2.22 µM
GI50 (UACC-62 melanoma): 0.755 µM
TGI (UACC-62 melanoma): 2.23 µM
GI50 (786-0 renal): 0.931 µM
TGI (786-0 renal): 2.29 µM
GI50 (HCT-15 colon): 1.03 µM
TGI (HCT-15 colon): 3.02 µM
GI50 (KM12 colon): 1.28 µM
TGI (KM12 colon): 2.6 µM
GI50 (NCI-H522 lung): 0.373 µM
TGI (NCI-H522 lung): 0.985 µM
GI50 (NCI/ADR-RES ovarian): 0.699 µM
TGI (NCI/ADR-RES ovarian): 2.39 µM
GI50 (UO-31 renal): 0.664 µM
TGI (UO-31 renal): 1.97 µM
GI50 (SF-539 CNS): 0.977 µM
TGI (SF-539 CNS): 2.56 µM
GI50 (OVCAR-4 ovarian): 0.53 µM
TGI (OVCAR-4 ovarian): 1.63 µM
GI50 (NCI-H460 lung): 0.935 µM
TGI (NCI-H460 lung): 2.87 µM
GI50 (OVCAR-3 ovarian): 0.579 µM
TGI (OVCAR-3 ovarian): 1.37 µM
GI50 (MCF7 breast): 0.532 µM
TGI (MCF7 breast): 2.1 µM
GI50 (K-562 leukemia): 0.661 µM
TGI (K-562 leukemia): 6.98 µM
GI50 (HOP-92 NSCLC): 1.47 µM
TGI (HOP-92 NSCLC): 3.24 µM
GI50 (PC-3 prostate): 0.834 µM
TGI (PC-3 prostate): 3.13 µM
GI50 (SR leukemia): 0.351 µM
TGI (SR leukemia): > 23 µM
GI50 (UACC-257 melanoma): 0.529 µM
TGI (UACC-257 melanoma): 1.29 µM
GI50 (SN12C renal): 1 µM
TGI (SN12C renal): 2.53 µM
GI50 (MDA-MB-435): 0.753 µM
TGI (MDA-MB-435): 2.27 µM
GI50 (HS 578T breast): 2.15 µM
TGI (HS 578T breast): > 30.7 µM
GI50 (CCRF-CEM leukemia): 0.437 µM
TGI (CCRF-CEM leukemia): 2.75 µM
GI50 (SF-295 CNS): 0.924 µM
TGI (SF-295 CNS): 2.72 µM
GI50 (NCI-H23 lung): 0.919 µM
TGI (NCI-H23 lung): 2.81 µM
GI50 (TK-10 renal): 1.09 µM
TGI (TK-10 renal): 2.47 µM
GI50 (BT-549 breast): 1.52 µM
TGI (BT-549 breast): 3.15 µM
GI50 (HCT-116 colon): 0.274 µM
TGI (HCT-116 colon): 0.69 µM
GI50 (SK-MEL-5 melanoma): 1.1 µM
TGI (SK-MEL-5 melanoma): 2.47 µM
GI50 (RPMI-8226 leukemia): 1.39 µM
TGI (RPMI-8226 leukemia): 4.05 µM
GI50 (A498 renal): 1.51 µM
TGI (A498 renal): 3.06 µM
GI50 (SK-MEL-2 melanoma): 1.6 µM
TGI (SK-MEL-2 melanoma): 3.92 µM
GI50 (IGROV1 ovarian): 0.862 µM
TGI (IGROV1 ovarian): 2.72 µM
GI50 (COLO 205 colon): 0.375 µM
TGI (COLO 205 colon): 0.951 µM
GI50 (SK-MEL-28 melanoma): 0.53 µM
TGI (SK-MEL-28 melanoma): 1.21 µM
GI50 (MOLT-4 leukemia): 0.614 µM
TGI (MOLT-4 leukemia): 6.76 µM
GI50 (RXF 393 renal): 0.587 µM
TGI (RXF 393 renal): 1.36 µM
GI50 (EKVX NSCLC): 1.36 µM
TGI (EKVX NSCLC): 3 µM
GI50 (CAKI-1 renal): 1.53 µM
TGI (CAKI-1 renal): 3.13 µM
GI50 (A549 NSCLC): 0.811 µM
TGI (A549 NSCLC): 2.33 µM
GI50 (ACHN renal): 0.967 µM
TGI (ACHN renal): 2.31 µM

Reference: PubChem BioAssay (NCI)
